Measured values from patent US8372831B2, “Isoxazoline linked pyrrolo[2,1-c][1,4]benzodiazepine hybrids as potential anticancer agents and the process for preparation thereof” (Council of Scientific & Industrial Research, priority 2008, dated 2013).

Tested on: duplex-form calf thymus DNA (CT-DNA)
Experiment: Thermal denaturation studies with calf thymus DNA
Format: binding
Conditions: [PBD]:[DNA] molar ratio 1:5, CT-DNA 100 μM, ligand 20 μM, pH 7.00
Description: Compounds have been subjected to thermal denaturation studies with duplex-form calf thymus DNA (CT-DNA) using a modification of a reported procedure. Working solutions in aqueous buffer (10 mM NaH2PO4/Na2HPO4, 1 mM Na2EDTA, pH 7.00+0.01) containing CT-DNA (100 (μm in phosphate) and the PBD (20(μm) have been prepared by addition of concentrated PBD solutions in DMSO to obtain a fixed [PBD]/[DNA] molar ratio of 1:5. The DNA-PBD solutions have been incubated at 37° C. for 0 and 18 hrs prior to analysis. Samples have been monitored at 260 nm using a Beckman DU-800 spectrophotometer fitted with high performance temperature controller, and heated at 1° C. min^−1 in the 40-110° C. range. DNA helix→coil transition temperatures (Tm) have been obtained from the maxima in the d(A260)/d T derivative plots. Drug-induced alterations in DNA melting behavior are given by: ΔTm=Tm(DNA+PBD)−Tm(DNA alone), where the Tm value for the PBD-free CT-DNA is 68.5±0.01.
The DNA-binding for these novel C8-linked isoxazoline-PBD hybrids has been examined by thermal denaturation studies using calf thymus CT-DNA. […] Data for 5a-c, 9b and 9g and DC-81 are included in Table 4 for comparison.

SMILES	ΔTm after incubation at 37° C. for 0 hrs [°C]	ΔTm after incubation at 37° C. for 18 hrs [°C]
COc1cc2c(cc1O)N=CC1CCCN1C2=O (centres unmarked) [DC-81, reference compound]	0.3	0.7
COc1cc(C2=NOC(c3cc(OC)c(OC)c(OC)c3)C2)ccc1OCCCOc1cc2c(cc1OC)C(=O)N1CCC[C@H]1C=N2 (stereo partly drawn) [Compound 5a, (11aS)-7-(methyloxy)-8-(3-[(2-(methyloxy)-4-5-[3,4,5-tri(methyloxy)phenyl]-4-,5-dihydro-3-isoxazolylphenyl)oxy]propyloxy)-2,3,5,11a-tetrahydro-1H benzo[e]pyrrolo[1,2-a][1,4]diazepi-5-one]	3.9	6.0
COc1cc2c(cc1OCCCCCOc1c(OC)cc(C3CC(c4ccc(OC)c(OC)c4OC)=NO3)cc1OC)N=C[C@@H]1CCCN1C2=O (stereo partly drawn) [Compound 9g, (11aS)-8-(5-[(2,6-di(methyloxy)-4-3-[2,3,4-tri(methyloxy)phenyl]-4,5-dihydro-5-isoxazolylphenyl)oxy]pentyloxy)-7-(methyloxy)-2,3,5,11a-tetrahydro-1H-benzo[e]pyrrolo[1,2-a][1,4]diazepin-5-one]	1.4	2.1
COc1cc(C2=NOC(c3cc(OC)c(OC)c(OC)c3)C2)ccc1OCCCCCOc1cc2c(cc1OC)C(=O)N1CCC[C@H]1C=N2 (stereo partly drawn) [Compound 5c, (11aS)-7-(methyloxy)-8-(5-[(2-(methyloxy)-4-5-[3,4,5-tri(methyloxy)phenyl]-4,5-dihydro-3-isoxazolylphenyl)oxy]pentyloxy)-2,3,5,11a-tetrahydro-1H benzo[e]pyrrolo[1,2-a][1,4]diazepi-5-one]	7.0	8
